The values below come from the supplement of paper PMC10307832.

Common to all, as to test: relative viability (nuclei count vs DMSO), 5 days (fraction); higher = more cells survive
Compound in test [1]: CN1CCN(CC1)C2=CC(=C(C=C2)NC3=NC=C4C(=N3)N(C5=CC=CC=C5C(=O)N4C)C)OC [XMD8-85] + Nc1ncn([C@H]2C[C@H](O)[C@@H](CO)O2)c(=O)n1 [Decitabine] (partner 2 µM)
The gist of the method: (§1)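 Cells from lung cancer lines were seeded into 1536-well plates and, one day later, dosed by pin tool. Treatments were either a single drug or a fixed dose of an anchor drug with five library-drug doses (not always all listed) in √10 steps. After 5 days, nuclei were stained in a one-step fixation (final 0.05% Triton X-100, 1% formaldehyde, 1 ug/ml Hoechst) and counted on 4× images, and relative viability is the treated-to-vehicle nuclei ratio, as the median of duplicate plates.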

Compound in test [2]: CN1CCN(CC1)C2=CC(=C(C=C2)NC3=NC=C4C(=N3)N(C5=CC=CC=C5C(=O)N4C)C)OC [XMD8-85] + O=C(CCCCCCC(=O)Nc1ccccc1)NO [Vorinostat] (partner 1 µM)
Summed up: as §1

Compound in test [3]: O=C(O)C(Cc1ccccc1[N+](=O)[O-])=NNc1nc(-c2ccc(Cl)c(Cl)c2)cs1 (mixture of isomers) [4EGI-1] + CS(=O)(=O)CCNCc1ccc(-c2ccc3ncnc(Nc4ccc(OCc5cccc(F)c5)c(Cl)c4)c3c2)o1 [Lapatinib] (partner 2 µM)
Summed up: as §1

Compound in test [4]: O=C(O)C(Cc1ccccc1[N+](=O)[O-])=NNc1nc(-c2ccc(Cl)c(Cl)c2)cs1 (mixture of isomers) [4EGI-1] + Cc1nc(NC(=O)N2CCC[C@H]2C(N)=O)sc1-c1ccnc(C(C)(C)C(F)(F)F)c1 [Alpelisib] (partner 2 µM)
The gist of the method:
as §1

HCC-366: the relative viability turned out to be 0.342 in test [1] (first compound 0.08 µM); 0.302 in test [1] (first compound 0.253 µM); 0.375 in test [1] (first compound 0.8 µM); 0.511 in test [1] (first compound 2.53 µM); 0.393 in test [1] (first compound 8 µM); 0.292 in test [2] (first compound 0.08 µM). Besides, the relative viability in test [2] (first compound 0.253 µM) came to 0.346; in test [2] (first compound 0.8 µM), 0.304; in test [2] (first compound 2.53 µM), 0.378; in test [2] (first compound 8 µM), 0.181; in test [3] (first compound 0.5 µM), 1.03; in test [3] (first compound 1.581 µM), 0.632. Also, the relative viability in test [3] (first compound 5 µM) was determined as 1.02; in test [3] (first compound 15.81 µM), 1.03; in test [3] (first compound 50 µM), 0.134; in test [4] (first compound 0.5 µM), 0.642; in test [4] (first compound 1.581 µM), 0.364; in test [4] (first compound 5 µM) it was 0.399. Besides, the relative viability in test [4] (first compound 15.81 µM) was determined as 0.5; in test [4] (first compound 50 µM), 0.331.

For NCI-H1755, the relative viability in test [1] (first compound 0.08 µM) was 0.754; in test [1] (first compound 0.253 µM), 0.677; in test [1] (first compound 0.8 µM), 0.714; in test [1] (first compound 2.53 µM), 0.764; in test [1] (first compound 8 µM) it was 0.724; in test [2] (first compound 0.08 µM), 0.8. Further, the relative viability amounted to 0.799 in test [2] (first compound 0.253 µM); 0.695 in test [2] (first compound 0.8 µM); 0.761 in test [2] (first compound 2.53 µM); 0.692 in test [2] (first compound 8 µM); 1.06 in test [3] (first compound 0.5 µM); 1.01 in test [3] (first compound 1.581 µM). Further, the relative viability in test [3] (first compound 5 µM) came out at 0.967; in test [3] (first compound 15.81 µM) it was 0.883; in test [3] (first compound 50 µM), 0.284; in test [4] (first compound 0.5 µM) it was 0.956; in test [4] (first compound 1.581 µM), 1.03; in test [4] (first compound 5 µM), 0.88. Moreover, the relative viability in test [4] (first compound 15.81 µM) came out at 0.851; in test [4] (first compound 50 µM) it was 0.445.

NCI-H2087: the relative viability in test [1] (first compound 0.08 µM) came out at 0.311; in test [1] (first compound 0.253 µM), 0.262; in test [1] (first compound 0.8 µM) it was 0.297; in test [1] (first compound 2.53 µM) it was 0.32; in test [1] (first compound 8 µM) it was 0.195; in test [2] (first compound 0.08 µM), 0.668. The relative viability in test [2] (first compound 0.253 µM) was 0.967; in test [2] (first compound 0.8 µM) it was 0.806; in test [2] (first compound 2.53 µM) it was 0.708; in test [2] (first compound 8 µM), 0.456; in test [3] (first compound 0.5 µM) it was 1.11; in test [3] (first compound 1.581 µM), 0.934. The relative viability in test [3] (first compound 5 µM) turned out to be 1.07; in test [3] (first compound 15.81 µM), 0.911; in test [3] (first compound 50 µM) it was 0.222; in test [4] (first compound 0.5 µM) it was 1.17; in test [4] (first compound 1.581 µM), 1.09; in test [4] (first compound 5 µM) it was 0.985. Further, the relative viability in test [4] (first compound 15.81 µM) stood at 0.839; in test [4] (first compound 50 µM), 0.221.

On to NCI-H1355, for which the relative viability is 0.359 in test [1] (first compound 0.08 µM); 0.308 in test [1] (first compound 0.253 µM); 0.345 in test [1] (first compound 0.8 µM); 0.355 in test [1] (first compound 2.53 µM); 0.329 in test [1] (first compound 8 µM); 0.682 in test [2] (first compound 0.08 µM). Moreover, the relative viability in test [2] (first compound 0.253 µM) amounted to 0.564; in test [2] (first compound 0.8 µM), 0.642; in test [2] (first compound 2.53 µM) it was 0.655; in test [2] (first compound 8 µM), 0.545; in test [3] (first compound 0.5 µM) it was 1.11; in test [3] (first compound 1.581 µM) it was 0.931. The relative viability was determined as 1.03 in test [3] (first compound 5 µM); 0.989 in test [3] (first compound 15.81 µM); 0.586 in test [3] (first compound 50 µM); 0.876 in test [4] (first compound 0.5 µM); 0.79 in test [4] (first compound 1.581 µM); 0.772 in test [4] (first compound 5 µM). The relative viability in test [4] (first compound 15.81 µM) was found to be 0.477; in test [4] (first compound 50 µM), 0.504.

As to NCI-H2170, the relative viability is 0.478 in test [1] (first compound 0.08 µM); 0.478 in test [1] (first compound 0.253 µM); 0.498 in test [1] (first compound 0.8 µM); 0.497 in test [1] (first compound 2.53 µM); 0.484 in test [1] (first compound 8 µM); 0.914 in test [2] (first compound 0.08 µM). Also, the relative viability in test [2] (first compound 0.253 µM) was found to be 0.8; in test [2] (first compound 0.8 µM) it was 0.792; in test [2] (first compound 2.53 µM), 0.877; in test [2] (first compound 8 µM), 0.715; in test [3] (first compound 0.5 µM), 0.32; in test [3] (first compound 1.581 µM), 0.266. Further, the relative viability is 0.289 in test [3] (first compound 5 µM); 0.264 in test [3] (first compound 15.81 µM); 0.235 in test [3] (first compound 50 µM); 0.865 in test [4] (first compound 0.5 µM); 0.803 in test [4] (first compound 1.581 µM); 0.849 in test [4] (first compound 5 µM). The results for the relative viability in test [4] (first compound 15.81 µM) and in test [4] (first compound 50 µM) were 0.768 and 0.344, respectively.

Turning to LK-2, the relative viability in test [1] (first compound 0.08 µM) came out at 0.255; in test [1] (first compound 0.253 µM), 0.295; in test [1] (first compound 0.8 µM) it was 0.268; in test [1] (first compound 2.53 µM), 0.246; in test [1] (first compound 8 µM), 0.232; in test [2] (first compound 0.08 µM) it was 0.25. Also, the relative viability in test [2] (first compound 0.253 µM) came out at 0.421; in test [2] (first compound 0.8 µM) it was 0.271; in test [2] (first compound 2.53 µM), 0.264; in test [2] (first compound 8 µM), 0.206; in test [3] (first compound 0.5 µM) it was 1.04; in test [3] (first compound 5 µM), 0.978. In addition, the relative viability in test [3] (first compound 15.81 µM) turned out to be 0.984; in test [3] (first compound 50 µM), 0.745; in test [4] (first compound 0.5 µM), 1.22; in test [4] (first compound 5 µM), 1.12; in test [4] (first compound 15.81 µM), 1.21; in test [4] (first compound 50 µM), 0.897.

Turning to NCI-H2023, the relative viability in test [1] (first compound 0.08 µM) came out at 0.176; in test [1] (first compound 0.253 µM), 0.198; in test [1] (first compound 0.8 µM), 0.25; in test [1] (first compound 2.53 µM), 0.244; in test [1] (first compound 8 µM), 0.227; in test [2] (first compound 0.08 µM), 0.405. Besides, the relative viability was 0.835 in test [2] (first compound 0.253 µM); 0.665 in test [2] (first compound 2.53 µM); 0.475 in test [2] (first compound 8 µM); 1.37 in test [3] (first compound 0.5 µM); 0.964 in test [3] (first compound 5 µM); 0.217 in test [3] (first compound 15.81 µM). Also, the relative viability came out at 0.0883 in test [3] (first compound 50 µM); 0.578 in test [4] (first compound 0.5 µM); 0.582 in test [4] (first compound 5 µM); 0.41 in test [4] (first compound 15.81 µM); 0.264 in test [4] (first compound 50 µM).
